In brackets after ≈: the same amount, converted by molar mass. Like-named read-outs stand apart in the source and are kept apart here.
Key:
[1] = system: P. aeruginosa (ΔmexAB-oprM); assay: microbe, parasite or virus in culture; assay type: cell-based; conditions: Pseudomonas aeruginosa, read-out: MIC P. aeruginosa ΔmexAB-OprM
Outline: (§1)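 CLSI broth microdilution in cation-supplemented Mueller-Hinton broth; 2-fold compound dilutions inoculated at 5×10^5 CFU/mL from a 3-5 h log-phase culture. Plates incubated 16-20 hours at 37° C; MIC read visually as lowest concentration with no growth.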

[2] = system: P. aeruginosa ATCC 35151; assay: microbe, parasite or virus in culture; assay type: cell-based; conditions: Pseudomonas aeruginosa, ATCC35151; hyper-permeable P. aeruginosa ATCC 35151; read-out: MIC P. aeruginosa ATCC 35151
Outline: as §1

[3] = system: engineered strain of Escherichia coli harboring CTX-M15; assay: microbe, parasite or virus in culture; assay type: cell-based; conditions: Escherichia coli, read-out: Microbiological Activity (MIC in mg/L), E. coli DH5α/pLBII-CTX-M15, engineered strain producing CTX-M15
[4] = system: P. aeruginosa PAO1; assay: Broth microdilution MIC, P. aeruginosa PAO1; assay type: cell-based; conditions: Pseudomonas aeruginosa
Experimental: (§2) To determine the ability of test compounds to potentiate the inhibition of the growth of bacterial strains, classic cell based broth microdilution minimum inhibitory concentration (MIC) assays were employed. MIC assays are performed according to CLSI methods except where otherwise noted (CLSI, 2011 and CLSI, 2009). The reference type strain E. coli ATCC 25922, the wild-type parent strain E. coli AG100, the hyper-permeable E. coli 901C and E. coli D22 and the E. coli AG100A strain lacking the acrAB efflux pump encoding genes were used to determine the ability of the PBP inhibitors to penetrate the outer membrane of gram-negative bacteria and inhibit bacterial growth. […] The P. aeruginosa PAO1, P. aeruginosa ATCC 27853 and A. baumannii ATCC 19606, along with the hyper-permeable P. aeruginosa ATCC 35151 and an engineered efflux pump-compromised strain of P. aeruginosa (ΔmexAB-oprM) were used to determine the ability of PBP inhibitors to penetrate the outer membrane of P. aeruginosa and A. baumannii and assess antibacterial activity against these important gram-negative organisms.
(§3) Briefly, cryo-preserved bacterial cultures of challenge strains are streaked for isolation on appropriate agar medium, in this case Mueller Hinton II agar. Following incubation to allow growth of the colonies, plates are sealed with parafilm and stored refrigerated for up to two weeks. For preparation of assay inoculum and to ensure low variability, at least 5 colonies are picked from the agar plates with an inoculating loop and aseptically transferred to a culture tube containing 3 mL of Mueller-Hinton Broth (supplemented with divalent cations to required levels based on Manufacturers' certification). The broth culture is grown for 3-5 hours at 37° C. with shaking at 200 rpm. Meanwhile, 2-fold serial dilutions of test compounds are conducted in a 96 well plate with a final volume of 75 μL per well at 2-fold the final desired concentration. After the dilution plates are set up the growing cultures are then diluted in a cuvette containing MH II broth and the optical density is measured at 600 nm. The Inoculum is diluted such that 75 μL of this culture in Mueller-Hinton Broth results in a starting bacterial concentration of 5×10^5 CFU/mL when added to the dilution plates. The plates are incubated for 16-20 hours at 37° C. The MIC values are read visually as the lowest concentration well with no bacterial growth.

[5] = system: K. pneumoniae 848844; assay: microbe, parasite or virus in culture; assay type: cell-based, Klebsiella pneumoniae; conditions: Klebsiella pneumoniae; K. pneumoniae 848844 producing SHV-11 and KPC-2; read-out: MIC K. pneumoniae 848844
Outline: as §1

[6] = target: E. coli PBP1b (Escherichia coli (strain K12), UniProt P02919); assay: Radioligand competition binding assay with 14C-labeled boronic acid probe, PBP1b
E. coli PBP1b, sequence (P02919 whole entry): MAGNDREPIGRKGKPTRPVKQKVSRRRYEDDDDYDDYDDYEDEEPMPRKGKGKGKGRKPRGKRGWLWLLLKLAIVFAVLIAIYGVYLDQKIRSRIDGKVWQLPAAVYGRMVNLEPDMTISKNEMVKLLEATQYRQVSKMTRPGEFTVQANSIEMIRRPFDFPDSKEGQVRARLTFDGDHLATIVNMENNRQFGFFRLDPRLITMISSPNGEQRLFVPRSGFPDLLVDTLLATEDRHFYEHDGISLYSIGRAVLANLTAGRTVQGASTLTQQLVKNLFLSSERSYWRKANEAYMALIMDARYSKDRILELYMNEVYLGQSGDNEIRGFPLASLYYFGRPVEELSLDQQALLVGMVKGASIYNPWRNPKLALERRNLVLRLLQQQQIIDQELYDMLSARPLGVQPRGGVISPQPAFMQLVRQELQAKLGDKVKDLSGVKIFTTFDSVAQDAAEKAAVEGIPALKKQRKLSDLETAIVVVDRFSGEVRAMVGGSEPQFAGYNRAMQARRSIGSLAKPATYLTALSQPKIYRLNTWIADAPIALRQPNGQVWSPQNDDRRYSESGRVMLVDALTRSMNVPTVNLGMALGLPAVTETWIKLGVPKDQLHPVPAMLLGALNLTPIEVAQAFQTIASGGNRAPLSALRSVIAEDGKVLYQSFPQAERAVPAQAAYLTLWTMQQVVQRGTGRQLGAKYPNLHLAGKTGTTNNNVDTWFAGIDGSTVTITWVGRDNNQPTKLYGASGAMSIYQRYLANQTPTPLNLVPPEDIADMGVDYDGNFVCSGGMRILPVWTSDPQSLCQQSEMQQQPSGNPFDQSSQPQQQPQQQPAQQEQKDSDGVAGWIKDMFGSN
Excerpt: To determine the ability of boronic acid-based test PBP inhibitors to bind Penicillin Binding Proteins (PBPs), a radio-labelled boronic acid PBP inhibitor
[drawing 751] was used in competition binding assays to determine boronic acid PBP inhibitor binding to PBP1a or PBP1b from Escherichia coli. PBP1a and PBP1b were purified as described previously (Bertsche, U.; et al., J. Biol. Chem. 2005, 280 (45), 38096-38101; Born, P.; et al., J. Biol. Chem. 2006. 281 (37), 26985-26993). To establish assay conditions for competition binding, an enzyme titration/saturation binding experiment was performed. Saturation binding was performed in a buffer comprised of 20 mM Tris (pH 7.5), 500 mM NaCl and 0.1% (v/v) TritonX-100, with PBP1a/PBP1b at a final concentration of 0.1 μM and Compound A at final concentrations ranging from 0-100 μM. Mixtures were incubated for 60 minutes, then applied to Zeba Spin Desalting columns or plates (ThermoFisher Scientific) and centrifuged at 1000-1500×g for 2 minutes. The flow through, containing PBP bound with Compound A, was recovered and 100 μL mixed with 5 mL of UltimaGold liquid scintillation cocktail (Perkin Elmer), and the radioactivity counted using a Beckman Coulter LS 6500 Multipurpose scintillation counter. PBP binding of Compound A approached saturation at 20 μM of ^14C-labeled probe. The competition binding assay was validated using the beta-lactam ampicillin, with Compound A at a final concentration of 20 μM, PBP1a/PBP1b at a final concentration of 0.1 μM. PBP1a/PBP1b was incubated with ampicillin in a 96-well microplate for 60 minutes, then Compound A was added and the mixtures incubated for an additional 60 minutes. The mixtures were then applied to Zeba Spin desalting plates and centrifuged at 1000×g for 2 minutes. The flow through was recovered and 100 μl mixed with 5 ml of UltimaGold liquid scintillation cocktail and the radioactivity counted. […] Binding assays with boronic acid PBP inhibitors were performed in an identical fashion. The potency of boronic acid PBP inhibitors was reported as the EC50 value.

[7] = system: E. coli AG100A; assay: microbe, parasite or virus in culture; assay type: cell-based; conditions: Escherichia coli, read-out: MIC E. coli AG100A
Outline: as §1

[8] = system: E. coli 901C; assay: microbe, parasite or virus in culture; assay type: cell-based; conditions: Escherichia coli; hyper-permeable E. coli 901C, broth microdilution; read-out: MIC E. coli 901C
Outline: as §1

[9] = system: K. pneumoniae SI-117; assay: microbe, parasite or virus in culture; assay type: cell-based; conditions: Klebsiella pneumoniae, SI117, read-out: MIC K. pneumoniae SI-117
Outline: as §1

[10] = system: E. coli D22; assay: microbe, parasite or virus in culture; assay type: cell-based; conditions: Escherichia coli; hyper-permeable E. coli D22, broth microdilution; read-out: MIC E. coli D22
Outline: as §1

[11] = system: K. pneumoniae UMM; assay: microbe, parasite or virus in culture; assay type: cell-based; conditions: Klebsiella pneumoniae; K. pneumoniae UMM producing SHV-5 and KPC-2; read-out: MIC K. pneumoniae UMM
Outline: as §1

[12] = target: E. coli PBP3 (Escherichia coli (strain K12), UniProt P0AD68); assay: E. coli PBP3 Bocillin-FL fluorescence polarization competition binding assay
E. coli PBP3, sequence (P0AD68 whole entry): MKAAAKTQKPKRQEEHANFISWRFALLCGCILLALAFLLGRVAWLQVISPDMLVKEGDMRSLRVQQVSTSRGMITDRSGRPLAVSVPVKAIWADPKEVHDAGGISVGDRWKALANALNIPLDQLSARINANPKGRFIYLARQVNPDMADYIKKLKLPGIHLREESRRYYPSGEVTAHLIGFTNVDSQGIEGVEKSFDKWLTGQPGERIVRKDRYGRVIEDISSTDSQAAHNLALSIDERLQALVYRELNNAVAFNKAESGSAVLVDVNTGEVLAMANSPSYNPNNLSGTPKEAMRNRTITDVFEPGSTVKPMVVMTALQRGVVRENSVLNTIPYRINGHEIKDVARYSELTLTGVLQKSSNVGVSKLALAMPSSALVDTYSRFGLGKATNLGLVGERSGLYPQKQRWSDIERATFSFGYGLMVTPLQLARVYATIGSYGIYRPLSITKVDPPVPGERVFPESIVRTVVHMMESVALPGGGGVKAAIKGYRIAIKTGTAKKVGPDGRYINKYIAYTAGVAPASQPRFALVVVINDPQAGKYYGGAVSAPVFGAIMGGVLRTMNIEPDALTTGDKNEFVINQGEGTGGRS
Outline: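 This was a fluorescence polarization competition with fluorescent penicillin Bocillin-FL (0.1 μM final), read at 490/520 nm for 60 min immediately after its addition. The buffer was Hepes pH 8.0 with 300 mM NaCl and 5% glycerol, containing 1.5 μM PBP and test inhibitor up to 1000 μM. Potency is expressed as EC50 for reducing probe binding.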

[13] = system: E. coli ATCC 25922; assay: Broth microdilution MIC, E. coli ATCC 25922; assay type: cell-based; conditions: Escherichia coli, ATCC25922; E. coli ATCC 25922, broth microdilution; read-out: MIC E. coli 25922
Outline: as §1

[14] = system: E. coli AG100; assay: Broth microdilution MIC, E. coli AG100 (wild-type parent); assay type: cell-based; conditions: Escherichia coli; wild-type parent E. coli AG100, broth microdilution; read-out: MIC E. coli AG100
Outline: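 Broth microdilution in cation-supplemented Mueller-Hinton broth, 2-fold serial compound dilutions, inoculum 5×10^5 CFU/mL from 3-5 h log culture.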

[15] = system: A. baumannii ATCC 19606; assay: Broth microdilution MIC, A. baumannii ATCC 19606; assay type: cell-based; conditions: Acinetobacter baumannii, ATCC19606; A. baumannii ATCC 19606, broth microdilution; read-out: MIC A. baumannii ATCC 19606
Experimental: as §2, §3

[16] = P. aeruginosa PAO1, broth microdilution, read-out: MIC P. aeruginosa PAO1

CCN1CCN(C(=O)NC(C(=O)N[C@H]2Cc3cccc(C(=O)O)c3OB2O)c2ccc(OC)nc2Cl)C(=O)C1=O (stereo partly drawn) [Example 65, (3R)-3-(2-(2-chloro-6-methoxypyridin-3-yl)-2-(4-ethyl-2,3-dioxopiperazine-1-carboxamido)acetamido)-2-hydroxy-3,4-dihydro-2H-benzo[e][1,2]oxaborinine-8-carboxylic acid]
MIC [1]: 32 to 64 µg/mL
MIC [2]: 8 to 16 µg/mL
MIC [3]: 128 to 256 mg/L (≈ 223 to 446 µM)
MIC ([4]; PAO1, read-out: MIC P. aeruginosa PAO1): > 128 µg/mL

CCN1CCN(C(=O)NC(C(=O)N[C@H]2Cc3cccc(C(=O)O)c3OB2O)c2cccnc2)C(=O)C1=O (stereo partly drawn) [Example 105, (3R)-3-(2-(4-ethyl-2,3-dioxopiperazine-1-carboxamido)-2-(pyridin-3-yl)acetamido)-2-hydroxy-3,4-dihydro-2H-benzo[e][1,2]oxaborinine-8-carboxylic acid]
MIC [5]: > 128 µg/mL
EC50 [6]: > 100 µM
MIC [7]: 2 to 4 µg/mL
MIC [8]: < 0.25 µg/mL
MIC [9]: > 128 µg/mL
MIC [10]: 8 to 16 µg/mL
MIC [11]: 32 to 64 µg/mL
MIC [3]: 32 to 64 mg/L (≈ 62.8 to 126 µM)
EC50 [12]: 30 to 500 µM
MIC [13]: 32 to 64 µg/mL
MIC [14]: 32 to 64 µg/mL

CCN1CCN(C(=O)NC(C(=O)N[C@H]2Cc3cccc(C(=O)O)c3OB2O)c2ccc[n+](CC(=O)[O-])c2)C(=O)C1=O (stereo partly drawn) [Example 108, 2-(3-(2-(((R)-8-carboxy-2-hydroxy-3,4-dihydro-2H-benzo[e][1,2]oxaborinin-3-yl)amino)-1-(4-ethyl-2,3-dioxopiperazine-1-carboxamido)-2-oxoethyl)pyridin-1-ium-1-yl)acetate]
MIC [5]: > 128 µg/mL
EC50 [6]: 10 to 100 µM
MIC [7]: 32 to 64 µg/mL
MIC [8]: 8 to 16 µg/mL
MIC [9]: > 128 µg/mL
MIC [10]: 8 to 16 µg/mL
MIC [11]: 32 to 64 µg/mL
MIC [3]: 32 to 64 mg/L (≈ 56.4 to 113 µM)
EC50 [12]: 30 to 500 µM
MIC [13]: 32 to 64 µg/mL
MIC [14]: > 128 µg/mL

CCN1CCN(C(=O)NC(C(=O)N[C@H]2Cc3cccc(C(=O)O)c3OB2O)c2ncccn2)C(=O)C1=O (stereo partly drawn) [Example 111, (3R)-3-(2-(4-ethyl-2,3-dioxopiperazine-1-carboxamido)-2-(pyrimidin-2-yl)acetamido)-2-hydroxy-3,4-dihydro-2H-benzo[e][1,2]oxaborinine-8-carboxylic acid]
MIC [5]: > 128 µg/mL
EC50 [6]: > 100 µM
MIC [7]: 2 to 4 µg/mL
MIC [8]: 0.5 to 1 µg/mL
MIC [9]: > 128 µg/mL
MIC [10]: 8 to 16 µg/mL
MIC [11]: 32 to 64 µg/mL
MIC [3]: 32 to 64 mg/L (≈ 62.7 to 125 µM)
EC50 [12]: 30 to 500 µM
MIC [13]: 32 to 64 µg/mL
MIC [14]: 32 to 64 µg/mL

CCN1CCN(C(=O)NC(C(=O)N[C@H]2Cc3cccc(C(=O)O)c3OB2O)c2ccc(S(C)(=O)=O)cc2)C(=O)C1=O (stereo partly drawn) [Example 118, (3R)-3-(2-(4-ethyl-2,3-dioxopiperazine-1-carboxamido)-2-(4-(methylsulfonyl)phenyl)acetamido)-2-hydroxy-3,4-dihydro-2H-benzo[e][1,2]oxaborinine-8-carboxylic acid]
EC50 [6]: > 100 µM
MIC [3]: 128 to 256 mg/L (≈ 218 to 437 µM)
EC50 ([12]; fluorescence polarization competition binding with Bocillin-FL, read-out: E. coli K12 PBP3 Potency): < 30 µM

CS(=O)(=O)c1ccc(C(NC(=O)N2CCN(CCF)C(=O)C2=O)C(=O)N[C@H]2Cc3cccc(C(=O)O)c3OB2O)cc1 (stereo partly drawn) [Example 119, (3R)-3-(2-(4-(2-fluoroethyl)-2,3-dioxopiperazine-1-carboxamido)-2-(4-(methylsulfonyl)phenyl)acetamido)-2-hydroxy-3,4-dihydro-2H-benzo[e][1,2]oxaborinine-8-carboxylic acid]
EC50 [6]: > 100 µM
MIC [3]: 32 to 64 mg/L (≈ 52.9 to 106 µM)
EC50 [12]: 30 to 500 µM

CCN1CCN(C(=O)NC(C(=O)N[C@H]2Cc3ccc(F)c(C(=O)O)c3OB2O)c2ccc(O)cn2)C(=O)C1=O (stereo partly drawn) [Example 128, (3R)-3-(2-(4-ethyl-2,3-dioxopiperazine-1-carboxamido)-2-(5-hydroxypyridin-2-yl)acetamido)-7-fluoro-2-hydroxy-3,4-dihydro-2H-benzo[e][1,2]oxaborinine-8-carboxylic acid]
MIC [5]: 32 to 64 µg/mL
MIC [1]: 8 to 16 µg/mL
MIC [7]: 2 to 4 µg/mL
MIC [2]: 0.5 to 1 µg/mL
MIC [8]: 0.5 to 1 µg/mL
MIC [9]: 8 to 16 µg/mL
MIC [10]: 2 to 4 µg/mL
MIC [11]: 8 to 16 µg/mL
MIC [15]: > 128 µg/mL
EC50 [12]: 30 to 500 µM
MIC [13]: 32 to 64 µg/mL
MIC [14]: 8 to 16 µg/mL
MIC [4, 16]: > 128 µg/mL

CCN1CCN(C(=O)N[C@@H](C(=O)N[C@H]2Cc3cccc(C(=O)O)c3OB2O)c2ccc(S(N)(=O)=O)c(OC)c2)C(=O)C1=O [Example 169, (R)-3-((R)-2-(4-ethyl-2,3-dioxopiperazine-1-carboxamido)-2-(3-methoxy-4-sulfamoylphenyl)acetamido)-2-hydroxy-3,4-dihydro-2H-benzo[e][1,2]oxaborinine-8-carboxylic acid]
MIC [5]: > 128 µg/mL
MIC [1]: 8 to 16 µg/mL
MIC [7]: 8 to 16 µg/mL
MIC [2]: 0.5 to 1 µg/mL
MIC [8]: < 0.25 µg/mL
MIC [9]: > 128 µg/mL
MIC [10]: 2 to 4 µg/mL
MIC [11]: > 128 µg/mL
MIC [15]: > 128 µg/mL
EC50 [12]: 30 to 500 µM
MIC [13]: 32 to 64 µg/mL
MIC [14]: 32 to 64 µg/mL
MIC [4, 16]: > 128 µg/mL

Reference: patent publication US12173018B2, “Penicillin-binding protein inhibitors” (priority 2018, dated 2024)
